According to PubChem BioAssay (NCI):
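In this assay, cells in 96-well plates receive the compound at five concentrations for 48 hours. Endpoints are linearly interpolated between the surrounding concentrations. The concentration for full growth arrest is given as TGI.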

Assays:
Assay in all cases: DTP human tumour cell line panel, 48 h
[1] = system: 786-0 renal
[2] = system: A549 NSCLC
[3] = system: ACHN renal
[4] = system: CCRF-CEM leukemia
[5] = system: COLO 205 colon
[6] = system: DLD-1 colon
[7] = system: DMS 114 small cell lung
[8] = system: DMS 273 small cell lung
[9] = system: EKVX NSCLC
[10] = system: HCC-2998 colon
[11] = system: HCT-116 colon
[12] = system: HCT-15 colon
[13] = system: HL-60(TB) leukemia
[14] = system: HOP-18 NSCLC
[15] = system: IGROV1 ovarian
[16] = system: K-562 leukemia
[17] = system: KM12 colon
[18] = system: KM20L2 colon
[19] = system: LOX IMVI melanoma
[20] = system: LXFL 529 NSCLC
[21] = system: M19-MEL melanoma
[22] = system: MALME-3M melanoma
[23] = system: MOLT-4 leukemia
[24] = system: NCI-H23 lung
[25] = system: NCI-H460 lung
[26] = system: NCI-H522 lung
[27] = system: OVCAR-5 ovarian
[28] = system: OVCAR-8 ovarian
[29] = system: RPMI-8226 leukemia
[30] = system: RXF 393 renal
[31] = system: SF-268 CNS
[32] = system: SF-295 CNS
[33] = system: SF-539 CNS
[34] = system: SK-MEL-2 melanoma
[35] = system: SK-MEL-28 melanoma
[36] = system: SK-MEL-5 melanoma
[37] = system: SK-OV-3 ovarian
[38] = system: SN12C renal
[39] = system: SNB-19 CNS
[40] = system: SNB-78 CNS
[41] = system: SR leukemia
[42] = system: SW-620 colon
[43] = system: TK-10 renal
[44] = system: U251 CNS
[45] = system: UACC-257 melanoma
[46] = system: UACC-62 melanoma
[47] = system: UO-31 renal
[48] = system: A498 renal
[49] = system: CAKI-1 renal
[50] = system: HOP-62 NSCLC
[51] = system: HOP-92 NSCLC
[52] = system: HT29 colon
[53] = system: M14 melanoma
[54] = system: NCI-H226 lung
[55] = system: OVCAR-3 ovarian
[56] = system: OVCAR-4 ovarian
[57] = system: SNB-75 CNS
[58] = system: XF 498 CNS

O=C1Nc2cccc3ncn(c23)C2=C1CCCC2
TGI [1]: > 100 µM
TGI [2]: > 100 µM
TGI [3]: > 100 µM
TGI [4]: > 100 µM
TGI [5]: > 100 µM
TGI [6]: > 100 µM
TGI [7]: > 100 µM
TGI [8]: > 100 µM
TGI [9]: > 100 µM
TGI [10]: > 100 µM
TGI [11]: > 100 µM
TGI [12]: > 100 µM
TGI [13]: > 100 µM
TGI [14]: 83.8 µM
TGI [15]: > 100 µM
TGI [16]: > 100 µM
TGI [17]: > 100 µM
TGI [18]: > 100 µM
TGI [19]: > 100 µM
TGI [20]: > 100 µM
TGI [21]: > 100 µM
TGI [22]: > 100 µM
TGI [23]: > 100 µM
TGI [24]: > 100 µM
TGI [25]: > 100 µM
TGI [26]: > 100 µM
TGI [27]: > 100 µM
TGI [28]: > 100 µM
TGI [29]: > 100 µM
TGI [30]: > 100 µM
TGI [31]: > 100 µM
TGI [32]: > 100 µM
TGI [33]: > 100 µM
TGI [34]: > 100 µM
TGI [35]: > 100 µM
TGI [36]: > 100 µM
TGI [37]: > 100 µM
TGI [38]: > 100 µM
TGI [39]: > 100 µM
TGI [40]: > 100 µM
TGI [41]: > 100 µM
TGI [42]: > 100 µM
TGI [43]: > 100 µM
TGI [44]: > 100 µM
TGI [45]: > 100 µM
TGI [46]: > 100 µM
TGI [47]: > 100 µM

O=C1C2=C(c3ccccc31)C(c1cccc(Cl)c1)NC(=S)N2 (stereo not given)
TGI [1]: > 100 µM
TGI [48]: > 100 µM
TGI [2]: > 100 µM
TGI [3]: > 100 µM
TGI [49]: > 100 µM
TGI [4]: > 100 µM
TGI [5]: > 100 µM
TGI [6]: > 100 µM
TGI [7]: > 100 µM
TGI [8]: > 100 µM
TGI [9]: > 100 µM
TGI [10]: > 100 µM
TGI [11]: > 100 µM
TGI [12]: > 100 µM
TGI [13]: > 100 µM
TGI [50]: > 100 µM
TGI [51]: > 100 µM
TGI [52]: > 100 µM
TGI [15]: > 100 µM
TGI [16]: > 100 µM
TGI [17]: > 100 µM
TGI [18]: > 100 µM
TGI [20]: > 100 µM
TGI [53]: > 100 µM
TGI [21]: > 100 µM
TGI [22]: > 100 µM
TGI [23]: > 100 µM
TGI [54]: > 100 µM
TGI [24]: > 100 µM
TGI [25]: > 100 µM
TGI [26]: > 100 µM
TGI [55]: > 100 µM
TGI [56]: > 100 µM
TGI [27]: > 100 µM
TGI [28]: > 100 µM
TGI [29]: > 100 µM
TGI [31]: > 100 µM
TGI [32]: > 100 µM
TGI [33]: > 100 µM
TGI [34]: > 100 µM
TGI [35]: > 100 µM
TGI [36]: > 100 µM
TGI [37]: > 100 µM
TGI [38]: > 100 µM
TGI [39]: > 100 µM
TGI [57]: > 100 µM
TGI [42]: > 100 µM
TGI [43]: > 100 µM
TGI [44]: > 100 µM
TGI [45]: > 100 µM
TGI [46]: > 100 µM
TGI [47]: > 100 µM
TGI [58]: > 100 µM
